In article PMC3265452 (PLoS Neglected Tropical Diseases, 2012):
Structures can show the parent of a compound that is named as a salt.

Target: AaDOP2 (Aedes aegypti, UniProt H6D5H2)
Experiment: AaDOP2 antagonist screen of the LOPAC1280 library (HEK-CRELuc-Aadop2 cells, luminescence)
Format: cell-based
Conditions: not given

Sequence of AaDOP2 (H6D5H2 1-476): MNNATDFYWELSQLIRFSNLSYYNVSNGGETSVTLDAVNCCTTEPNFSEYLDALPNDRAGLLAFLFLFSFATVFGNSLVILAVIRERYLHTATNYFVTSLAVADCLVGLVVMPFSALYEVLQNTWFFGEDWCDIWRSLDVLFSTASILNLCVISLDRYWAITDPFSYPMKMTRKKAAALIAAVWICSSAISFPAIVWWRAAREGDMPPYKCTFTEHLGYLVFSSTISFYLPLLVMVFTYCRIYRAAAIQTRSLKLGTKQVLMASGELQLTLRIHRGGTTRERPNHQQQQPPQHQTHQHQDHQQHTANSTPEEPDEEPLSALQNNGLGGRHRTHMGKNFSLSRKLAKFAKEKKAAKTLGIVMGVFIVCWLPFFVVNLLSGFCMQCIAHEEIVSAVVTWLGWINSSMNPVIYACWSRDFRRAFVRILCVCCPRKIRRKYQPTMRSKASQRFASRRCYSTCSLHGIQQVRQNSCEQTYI

Row | Molecule | Compound effect (percent receptor signaling in presence of test compound, relative lux units relative to the SCH23390 control)
1 | Cl.NC1C=CC=C(C(=O)O)C1 (stereo not drawn) [Compound 41, Gabaculine hydrochloride] | 106
2 | CC(N)C(=O)OC(C)(C)Cc1ccc(Cl)cc1 (stereo not drawn) [Compound 133, Alaproclate hydrochloride] | 110
3 | O=C(O)c1ccccc1Nc1ccccc1 [Compound 2, N-Phenylanthranilic acid] | 100
4 | CCn1nc(C(=O)O)c(=O)c2cc3c(cc21)OCO3 [Compound 311, Cinoxacin] | 135
5 | CC1=NS(=O)(=O)c2cc(Cl)ccc2N1 [Compound 425, Diazoxide] | 115
6 | CCCN(CCC)[C@H]1CCc2c(F)ccc(O)c2C1.Cl [Compound 1244, S(-)-UH-301 hydrochloride] | 90
7 | CC[N+](C)(C)Cc1ccccc1Br [Compound 191, Bretylium tosylate] | 97
8 | CCCCNc1c(C(=O)OCC)c(C)nc2c1cnn2CC [Compound 1223, Tracazolate] | 113
9 | CC1(C)CCC(NC(=O)[C@@H](N)CCC(=O)O)CC1 [Compound 843, CR 2249] | 92
10 | CCCCCCCCCCCCCCCCCCNC(=O)OCC(COP(=O)([O-])OCC[n+]1ccsc1)OC (stereo not drawn) [Compound 1114, CV-3988] | 101
11 | C=C[C@@]1(C)CC(=O)[C@]2(O)[C@@]3(C)[C@@H](O)CCC(C)(C)[C@@H]3[C@H](O)[C@H](OC(C)=O)[C@@]2(C)O1 [Compound 529, Forskolin] | 46
12 | N.N.O=C([O-])C1(C(=O)[O-])CCC1.[Pt+2] [Compound 239, Carboplatin] | 83
13 | C[C@H](CCC(=O)NCCS(=O)(=O)O)[C@H]1CC[C@H]2[C@@H]3[C@H](O)C[C@@H]4C[C@H](O)CC[C@]4(C)[C@H]3C[C@H](O)[C@]12C [Compound 66, Sodium Taurocholate] | 115
14 | CC(C)[C@H](CO)Nc1nc(Nc2cccc(Cl)c2)c2ncn(C(C)C)c2n1 [Compound 942, Purvalanol A] | 7
15 | CC(=O)OC(C)C[N+](C)(C)C.[Cl-] (stereo not drawn) [Compound 35, Acetyl-beta-methylcholine chloride] | 127
16 | N#CC(C#N)=C(N)/C(C#N)=C/c1cc(O)c(O)c(O)c1 [Compound 1204, Tyrphostin 51] | 122
17 | O=C1NCN(c2ccccc2)C12CCN(CCCC(c1ccc(F)cc1)c1ccc(F)cc1)CC2 [Compound 540, Fluspirilene] | 53
18 | CC[C@]1(O)C[C@H]2CN(CCc3c([nH]c4ccccc34)[C@@](C(=O)OC)(c3cc4c(cc3OC)N(C=O)[C@H]3[C@@](O)(C(=O)OC)[C@H](OC(C)=O)[C@]5(CC)C=CCN6CC[C@]43[C@@H]65)C2)C1 [Compound 1257, Vincristine sulfate] | 98
19 | CC[C@H](C)[C@H]1O[C@]2(CC[C@@H]1C)C[C@@H]1C[C@@H](C/C=C(\C)[C@@H](O[C@H]3C[C@H](OC)[C@@H](O[C@H]4C[C@H](OC)[C@@H](O)[C@H](C)O4)[C@H](C)O3)[C@@H](C)/C=C/C=C3\CO[C@@H]4[C@H](O)C(C)=C[C@@H](C(=O)O1)[C@]34O)O2 [Compound 662, Ivermectin] | 101
20 | COc1cc2ncnc(Nc3ccc(O)cc3)c2cc1OC [Compound 1260, WHI-P131] | 90
21 | 2-Methylthioadenosine triphosphate tetrasodium [Compound 120] | 99
22 | Cl.O=C(O)Cc1c[nH]cn1 [Compound 629, Imidazole-4-acetic acid hydrochloride] | 122
23 | CC(N)C(O)c1ccc(O)c(O)c1 (single isomer, unassigned; (-)) [Compound 388, (-)-alpha-Methylnorepinephrine] | 88

Same assay, conditions: 10 µM compound, 300 nM dopamine, 2 hr

Row | Molecule | % of the SCH23390 effect (percent inhibition of receptor response relative to the SCH23390 control) [%]
24 | CN1CCN(CC/C=C2/c3ccccc3Sc3ccc(S(=O)(=O)N(C)C)cc32)CC1.Cl [Compound 1147, Thiothixene hydrochloride] | 86

Same assay, conditions: 10 µM compound, 300 nM dopamine, 2 hr; hit = compound effect <20

Row | Molecule | Compound effect (percent receptor signaling in presence of test compound, relative lux units relative to the SCH23390 control) [%]
25 | CC(N)(C(=O)O)c1ccc(C(=O)O)cc1 (racemic) [Compound 771, (±)-alpha-Methyl-4-carboxyphenylglycine] | 108
26 | Cl.O=C(CCCN1CCC2(CC1)C(=O)N(CCc1ccc(N=C=S)cc1)CN2c1ccccc1)c1ccc(F)cc1 [Compound 879, N-(p-Isothiocyanatophenethyl)spiperone hydrochloride] | 83
27 | O=C1CCC(N2C(=O)c3ccccc3C2=O)C(=O)N1 (racemic) [Compound 1227, (±)-Thalidomide] | 107
28 | O=C(O)/C=C\C(=O)O.O=[N+]([O-])c1ccc2nc(N3CCNCC3)ccc2c1 [Compound 1037, Quipazine, 6-nitro-, maleate] | 92
29 | CCCN1CCO[C@@H]2c3cc(O)ccc3OC[C@H]21.Cl [Compound 1019, S(+)-PD 128,907 hydrochloride] | 89
30 | N#Cc1cc2nc([O-])c([O-])nc2cc1[N+](=O)[O-].[Na+].[Na+] [Compound 351, CNQX disodium] | 91
31 | S=C([S-])OC1CC2CC1C1CCCC21.[K+] [Compound 1213, D-609 potassium] | 87
32 | COc1cccc(OC)c1OCCNCC1COc2ccccc2O1.Cl (stereo not drawn) [Compound 354, WB-4101 hydrochloride] | 101
33 | C/C=C1\C(=O)C[C@H]2[C@@H]3CCC4=CC(=O)CC[C@]4(C)[C@H]3CC[C@]12C [Compound 420, (Z)-Gugglesterone] | 91
34 | CNC(=O)[C@H]1O[C@@H](n2cnc3c(NCc4ccc(N)cc4)ncnc32)[C@H](O)[C@@H]1O [Compound 143, AB-MECA] | 100
35 | CN1CCN(CC/C=C2/c3ccccc3Sc3ccc(S(=O)(=O)N(C)C)cc32)CC1.Cl [Compound 1147, Thiothixene hydrochloride] | 14

Same assay, conditions: read-out: % of the SCH23390 effect (percent inhibition of receptor response relative to the SCH23390 control)

Row | Molecule | inhibition at 10 µM [%]
36 | CC(C)[C@H](CO)Nc1nc(Nc2cccc(Cl)c2)c2ncn(C(C)C)c2n1 [Compound 942, Purvalanol A] | 93
